Data published in patent publication US10239957B2, “Peptide containing conjugates for dual molecular delivery of oligonucleotides” (Merck Sharp & Dohme Corp., priority 2013, dated 2019).
Where no end group is shown, it is not given here. [ ]: non-standard residue; d: D form. TGN = not defined here

How the values were obtained:
CTNNB1 [1] = test: In vivo evaluation in mice: liver mRNA knockdown measurement
Protocol: Female CD-1 mice (Charles River) were injected in accordance with either a sequential dosing paradigm or a co-dosing paradigm. In the sequential dosing paradigm, the targeted siRNA (SCE) is dosed at t=0 and the targeted peptide is separately dosed up to 2 hr before the SCE (−2 hr) or up to 24 hr after the SCE (+24 hr). In the co-dosing paradigm, the SCE and peptides are co-formulated and dosed together in the same formulation as a single injection at t=0. The mice were dosed either by intravenous (i.v.) or subcutaneous (s.c.) injection of SCE and peptide. For the i.v. doses, the compounds were injected into the tail vein of the mice. For the s.c. doses, the compounds were injected in the subcutaneous space on the back of the mouse between the shoulder blades. At the indicated harvest times (measured from t=0 when the siRNA was dosed, regardless of when the peptide was dosed), the animals were sacrificed and 3 mm liver punches were collected, preserved in RNAlater (Ambion), and stored at 4° C. Separate 5 mm liver punches were collected, placed in 96-well plates, frozen on dry ice, and stored at −80° C. until use.
The 3 mm liver punches were removed from RNAlater and homogenized in Trizol (Invitrogen) using a bead mill tissue lyser (Qiagen); disruption was performed for two 5-minute cycles at 30 Hz. RNA extraction was performed using 1-bromo-2-chloropropane (Acros Organics) and total RNA was isolated from the aqueous phase using the MagMax RNA isolation method (Ambion). […] TaqMan qPCR analysis was performed with an ABI 7900 Real-Time PCR System using TaqMan Fast Advanced Master Mix (Applied Biosystems). All TaqMan probes and primers for CTNNB1 and PPIB (housekeeping gene) were purchased from Applied Biosystems as pre-validated gene expression assays. Results are calculated by the comparative Ct method, where the difference between the CTNNB1 Ct value and the PPIB Ct value (ΔCt) is calculated and then further normalized relative to the PBS control by taking a second difference (ΔΔCt), as described previously (1).

CTNNB1 [2] = test: In vitro DMD assay: mRNA silencing enhancement by peptide conjugates after siRNA-IV treatment; format: cell-based; details: primary mouse hepatocytes, siRNA-IV 125 nM baseline
In short: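 Primary mouse hepatocytes were pretreated 1 h with siRNA-IV at 125 nM, then exposed ~16 h to peptide conjugates across a dose range, washed and held 24 h more. Target mRNA by RT-qPCR, normalized to PPIB (dddCt), expressed as enhancement over siRNA-IV alone relative to untreated cells.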

[3] = Table 8 (linkage comparison), TGN-L-siRNA-II 0.25 mg/kg, peptide 1 mg/kg
[4] = Table 8 (linkage comparison), TGN-L-siRNA-II 0.25 mg/kg, peptide 3 mg/kg
[5] = mice, TGN-L-siRNA-III 0.25 mg/kg IV, peptide 2 mg/kg IV 15 min after siRNA
[6] = mice, TGN-L-siRNA-III 0.25 mg/kg IV, peptide 10 mg/kg IV 15 min after siRNA
[7] = mice, TGN-L-siRNA-III 0.5 mg/kg IV, peptide 5 mg/kg IV 15 min after siRNA
[8] = mice, TGN-L-siRNA-III 0.25 mg/kg IV, peptide 5 mg/kg IV 15 min after siRNA

Substance: TGN-CDM-SEQ ID NO: 1801 (D): TGN-CDM peptide; peptide glfgeieelieeglenlidwgng; C8 made from the same all(D) sequence (G[dL][dF]G[dE][dI][dE][dE][dL][dI][dE][dE]G[dL][dE][dN][dL][dI][dD][dW]G[dN]G; also: TGN-CDM conjugate; listed as Homo sapiens)
- In vivo mRNA knockdown (CTNNB1 [1]; [3]): 23.0%
- In vivo mRNA knockdown (CTNNB1 [1]; [4]): 24.9%

Substance: TGN-ECL-SEQ ID NO: 1802 (D): TGN-ECL-peptide; peptide gffgaiwefihsil (G[dF][dF]G[dA][dI][dW][dE][dF][dI][dH][dS][dI][dL]; also: TGN-ECL conjugate; listed as Homo sapiens)
- In vivo mRNA knockdown (CTNNB1 [1]; [3]): 28.7%
- In vivo mRNA knockdown (CTNNB1 [1]; [4]): 64.0%

Substance: TGN-S-S- SEQ ID NO: 1738 (D) (G[dL][dF]G[dE][dI][dE][dE][dL][dI][dE][dE]G[dL][dE][dN][dL][dI][dD][dW]G[dN]G[dL][dA][dE][dL][dA][dE][dA][dL][dE][dA][dL][dA][dA]GG[dS][dC]; not fully specified (residue 40); also: TGN attached via disulfide; listed as Homo sapiens)
- In vivo mRNA knockdown (CTNNB1 [1]; mice, TGN-L-siRNA-II 0.25 mg/kg IV, peptide 1 mg/kg IV 15 min after siRNA): 25%
- In vivo mRNA knockdown (CTNNB1 [1]; mice, TGN-L-siRNA-II 0.25 mg/kg IV, peptide 3 mg/kg IV 15 min after siRNA): 44%

Substance: TGN-S-S-SEQ ID NO: 935 (L) (C(TGN)GFFGEIAELIWEGLKNLIDWWNG; reading uncertain; also: TGN linked to Cys via disulfide, TGN not defined; listed as Homo sapiens)
- In vivo mRNA knockdown (CTNNB1 [1]; [5]): 17%
- In vivo mRNA knockdown (CTNNB1 [1]; [6]): 23%

Substance: TGN-S-S-SEQ ID NO: 1248 (L) (C(TGN)FLEELWELLEHLL; reading uncertain; also: TGN disulfide conjugate at Cys1; listed as Homo sapiens)
- In vivo mRNA knockdown (CTNNB1 [1]; [7]): 24%

Substance: TGN-S-S-SEQ ID NO: 1403 (L) (C(TGN)GLLEEIEELLEEGLENLIDWWNS; reading uncertain; also: TGN disulfide conjugate at Cys1; listed as Homo sapiens)
- In vivo mRNA knockdown (CTNNB1 [1]; [5]): 22%
- In vivo mRNA knockdown (CTNNB1 [1]; [6]): 24%

Substance: TGN-S-S-SEQ ID NO: 1489 (D) ([dC][dL][dE][dL][dW][dL][dE][dH][dL][dF][dL][dE][dL][dE]; not fully specified (residue 1); also: TGN attached via disulfide; listed as Homo sapiens)
- In vivo mRNA knockdown (CTNNB1 [1]; mice, TGN-L-siRNA-III 0.5 mg/kg IV, peptide 2 mg/kg IV 15 min after siRNA): 37%
- In vivo mRNA knockdown (CTNNB1 [1]; mice, TGN-L-siRNA-III 0.5 mg/kg IV, peptide 10 mg/kg IV 15 min after siRNA): 26%
- In vivo mRNA knockdown (CTNNB1 [1]; mice, TGN-L-siRNA-III 0.5 mg/kg IV, peptide 25 mg/kg IV 15 min after siRNA): 34%

Substance: TGN-S-S-SEQ ID NO: 1516 (L) (C(TGN)GLFAEIEELLEEGLENLIDWWNG; reading uncertain; also: TGN disulfide conjugate at Cys1; listed as Homo sapiens)
- In vivo mRNA knockdown (CTNNB1 [1]; [8]): 14%

Substance: TGN-S-S-SEQ ID NO: 1643 (D) ([dC]G[dF][dF]G[dE][dI][dA][dE][dL][dI][dE][dE]G[dL][dK][dN][dL][dI][dD][dW]G[dN]G; not fully specified (residue 1); also: TGN attached via disulfide; listed as Homo sapiens)
- In vivo mRNA knockdown (CTNNB1 [1]; [6]): 41%

Substance: TGN-S-S-SEQ ID NO: 1716 (L) (C(TGN)GLFEELAGLLWHGLKNLIDWWNG; reading uncertain; also: TGN disulfide conjugate at Cys1; listed as Homo sapiens)
- In vivo mRNA knockdown (CTNNB1 [1]; [7]): 39%

Substance: TGN-S-S-SEQ ID NO: 1717(L): TGN-S-S-peptide; peptide CFLGALFHALSHLLENLIDWWNG (C(TGN)FLGALFHALSHLLENLIDWWNG; reading uncertain; also: TGN disulfide conjugate at Cys1; listed as Homo sapiens)
- In vivo mRNA knockdown (CTNNB1 [1]; [7]): 16%

Substance: TGN-S-S-SEQ ID NO: 1719 (L) (C(TGN)GLFAEIEELIWEGLENLIDWWNQ; reading uncertain; also: TGN disulfide conjugate at Cys1; listed as Homo sapiens)
- In vivo mRNA knockdown (CTNNB1 [1]; [8]): 25%

Substance: TGN-S-S-SEQ ID NO: 1725 (L) (C(TGN)SSAWWSYWPPVA; reading uncertain; also: TGN disulfide conjugate at Cys1; listed as Homo sapiens)
- In vivo mRNA knockdown (CTNNB1 [1]; [6]): 19%

Substance: TGN-S-S-Seq-ID-58 (D) (CRRQRRKKRGYGYWGDILGEWGNEIFGEIAEFLG; not fully specified; TGN disulfide conjugate; D-amino acids; listed as Homo sapiens)
- In vitro dddCt (vs. baseline SCE dose) (CTNNB1 [2]; Targeted peptide dose 8 nM): −0.05
- In vitro dddCt (vs. baseline SCE dose) (CTNNB1 [2]; Targeted peptide dose 40 nM): −0.03
- In vitro dddCt (vs. baseline SCE dose) (CTNNB1 [2]; Targeted peptide dose 200 nM): −0.25
- In vitro dddCt (vs. baseline SCE dose) (CTNNB1 [2]; Targeted peptide dose 1000 nM): −0.26
- In vitro dddCt (vs. baseline SCE dose) (CTNNB1 [2]; Targeted peptide dose 5000 nM): −0.3

Substance: TGN-S-S-Seq-ID-61 (D) (CRRQRRKKRGYGYWWDILGKWGNEIFGEIAEFLG; not fully specified; TGN disulfide conjugate; D-amino acids; listed as Homo sapiens)
- In vitro dddCt (vs. baseline SCE dose) (CTNNB1 [2]; Targeted peptide dose 8 nM): 0.13
- In vitro dddCt (vs. baseline SCE dose) (CTNNB1 [2]; Targeted peptide dose 40 nM): 0.08
- In vitro dddCt (vs. baseline SCE dose) (CTNNB1 [2]; Targeted peptide dose 200 nM): 0.01
- In vitro dddCt (vs. baseline SCE dose) (CTNNB1 [2]; Targeted peptide dose 1000 nM): 0
- In vitro dddCt (vs. baseline SCE dose) (CTNNB1 [2]; Targeted peptide dose 5000 nM): −0.55

Substance: TGN-S-S-Seq-ID-65 (D) ([dC][dI][dF]G[dA][dI][dA]G[dF][dI][dK][dN][dI][dW][dK]; not fully specified (residue 1); also: disulfide-linked to TGN peptide via Cys; listed as Homo sapiens)
- In vitro dddCt (vs. baseline SCE dose) (CTNNB1 [2]; Targeted peptide dose 8 nM): 0
- In vitro dddCt (vs. baseline SCE dose) (CTNNB1 [2]; Targeted peptide dose 40 nM): −0.73
- In vitro dddCt (vs. baseline SCE dose) (CTNNB1 [2]; Targeted peptide dose 200 nM): −1.48
- In vitro dddCt (vs. baseline SCE dose) (CTNNB1 [2]; Targeted peptide dose 1000 nM): −1.88
- In vitro dddCt (vs. baseline SCE dose) (CTNNB1 [2]; Targeted peptide dose 5000 nM): −2.68

Substance: TGN-S-S-Seq-ID-111 (D) ([dC][dF][dF]G[dA][dI][dW][dE][dF][dI][dK][dS][dI][dL][dE]G[dL][dI][dD][dW][dW][dY]G[dY]G[dH][dK][dK][dH][dH][dQ][dH][dR]; not fully specified (residue 1); also: TGN conjugated via disulfide at Cys1; listed as Homo sapiens)
- In vitro dddCt (vs. baseline SCE dose) (CTNNB1 [2]; Targeted peptide dose 5000 nM): −1.4

Substance: TGN-S-S-Seq-ID-115 (D) ([dC][dL][dH][dL][dL][dH][dH][dL][dL][dH][dH][dL][dH][dH][dL][dL][dH][dH][dL][dL][dH][dL][dL][dH][dH][dL][dL][dH][dH][dL]GGG[dR][dK][dK][dR][dR][dQ][dR][dR][dR][dP][dP][dQ]; not fully specified (residue 1); also: TGN conjugated via disulfide at Cys1; listed as Homo sapiens)
- In vitro dddCt (vs. baseline SCE dose) (CTNNB1 [2]; Targeted peptide dose 5000 nM): −0.17

Substance: TGN-S-SEQ ID NO: 1517 (L) (CGLFGEIEELIEEGLECITLIDWWNG; cysteine pairing not given here; also: TGN-S conjugate; listed as Homo sapiens)
- In vitro dddCt (vs. baseline SCE dose) (CTNNB1 [2]; Targeted peptide dose 25 nM): 0.54
- In vitro dddCt (vs. baseline SCE dose) (CTNNB1 [2]; Targeted peptide dose 125 nM): 0.49
- In vitro dddCt (vs. baseline SCE dose) (CTNNB1 [2]; Targeted peptide dose 625 nM): 0.48
- In vitro dddCt (vs. baseline SCE dose) (CTNNB1 [2]; Targeted peptide dose 3125 nM): 0.33
